Measurements reported in patent US12453709B2, “Compositions and methods for treating autism” (priority 2013, dated 2025).

Tests used:
Type in all cases: in vivo, human
[1] = test system: male patients diagnosed with autism; assay: Study HT 02-121: Clinical Global Impression (CGI) rating scales; details: for CGI-I Mean Change from Baseline / CGI-I Treatment effect versus placebo / CGI-I change from Baseline, median / CGI-S Mean Change from Baseline / CGI-S Treatment effect versus placebo / CGI-S change from Baseline, median: Week 4/LOCF
Experimental: (§1) This clinical study was a randomized double-blind, placebo-controlled two-cohort, 4-week dose-escalation study that incorporated two open-label treatment groups to assess the safety and efficacy of L1-79 100 mg and 200 mg TID in male patients between the ages of […] years of age diagnosed with autism. The first cohort of 20 patients was comprised of three groups of patients: The first group of five patients received open-label L1-79 100 mg TID and underwent PK and EKG assessments. The remaining two groups in this cohort consisted of 15 patients randomized on a 2:1 basis to receive L1-79 100 mg TID or placebo. The PK and safety data from the open-label L1-79 100 mg TID group was submitted to FDA for review and acceptance before the second cohort was enrolled. The second cohort was procedurally identical to the first. The second cohort of 20 patients was comprised of the same three groups of patients but a dose of 200 mg TID was used instead of 100 mg TID. The key inclusion criteria were as follows: (1) males between 13 and 21 years of age, (2) DSM-5 compliant diagnosis of autism spectrum disorder, confirmed by the Autistic Diagnosis Interview Review (ADIR), and by an ADOS-2 score consistent with a diagnosis of autism, (3) must have been stable on no more than one concomitant medication and no planned changes in psychosocial interventions during the study.
The primary efficacy endpoint was the determination of the clinical improvement by the investigator as documented by the Clinical Global Impression (CGI) rating scales. Additional efficacy endpoints included: (1) changes from baseline in the Socialization and Communication Domains of the Vineland Adaptive Behavior Scales, Second Edition (VABS II) parent/caregiver rating form, (2) changes from baseline in the ADOS-2 Total Score and subscores, (3) changes in the Social Responsiveness Scale, Second Edition (SRS-2) Total Score and subscales, (4) changes in the ABC-C domains, (5) changes in the Repetitive Behavior Scale-Revised (RBS-R) Total Score and subscales. Given the exploratory design of this study only descriptive statistics were planned. […]
Responder definitions for CGI-S were defined as improvement only (instead of improvement or no change) since, unlike the other measures which were performed weekly, the CGI-S requires the clinician to give an overall assessment of the patients' clinical symptom severity based on all of the outcome measures and their movement over the entirety of the study.

patients with autism = assay: Example 5: open-label evaluation of L1-79 (ABC-C, ADOS-2)
Experimental: L1-79 was used anecdotally in two patients followed by a more structured evaluation in 8 additional patients with autism. All patients were administered a starting dose of L1-79 of 90 mg TID for a minimum of 3 months. During the evaluation doses as high as 400 mg TID were used. A summary of data available on these 10 patients was provided in the Summary of Clinical Efficacy, Use of L1-79 to treat autism, submitted to IND 128673, sequence number 0005.

[2] = test system: male patients diagnosed with autism; assay: Study HT 02-121: Aberrant Behavior Checklist-Community (ABC-C); details: for ABC-C Hyperactivity and Noncompliance Mean Change from Baseline / ABC-C Hyperactivity and Noncompliance Treatment effect versus placebo / ABC-C Hyperactivity and Noncompliance change, median / ABC-C Inappropriate Speech Mean Change from Baseline / ABC-C Inappropriate Speech Treatment effect versus placebo / ABC-C Inappropriate Speech change, median / ABC-C Irritability and Agitation Mean Change from Baseline / ABC-C Irritability and Agitation Treatment effect versus placebo / ABC-C Irritability and Agitation change, median / ABC-C Lethargy and Social Withdrawal Mean Change from Baseline / ABC-C Lethargy and Social Withdrawal Treatment effect versus placebo / ABC-C Lethargy and Social Withdrawal change, median / ABC-C Stereotypic Behavior Mean Change from Baseline / ABC-C Stereotypic Behavior Treatment effect versus placebo / ABC-C Stereotypic Behavior change, median: Week 4/LOCF
Experimental: as §1
(§2) The primary efficacy endpoint was the determination of the clinical improvement by the investigator as documented by the Clinical Global Impression (CGI) rating scales. Additional efficacy endpoints included: (1) changes from baseline in the Socialization and Communication Domains of the Vineland Adaptive Behavior Scales, Second Edition (VABS II) parent/caregiver rating form, (2) changes from baseline in the ADOS-2 Total Score and subscores, (3) changes in the Social Responsiveness Scale, Second Edition (SRS-2) Total Score and subscales, (4) changes in the ABC-C domains, (5) changes in the Repetitive Behavior Scale-Revised (RBS-R) Total Score and subscales. Given the exploratory design of this study only descriptive statistics were planned.
In the preliminary study, all forms were completed at the study site in the presence of the investigator. In Cohort 1 of the present study, the VABS-II, SRS-2, ABC-C and RBS-R were filled out at home by the patient/patient's families prior to treatment visits and returned at treatment visits in order to expedite the execution of the study. […]

[3] = test system: male patients diagnosed with autism; assay: Study HT 02-121: Autism Diagnostic Observation Schedule (ADOS-2); details: for ADOS-2 Restricted and Repetitive Behavior Mean Change from Screening / ADOS-2 Restricted and Repetitive Behavior Treatment effect versus placebo / ADOS-2 Restricted and Repetitive Behavior change, median / ADOS-2 Social Affect Mean Change from Screening / ADOS-2 Social Affect Treatment effect versus placebo / ADOS-2 Social Affect change, median / ADOS-2 Total Score Mean Change from Screening / ADOS-2 Total Score Treatment effect versus placebo / ADOS-2 Total Score change from Screening, median: Week 4/LOCF
Experimental: as §1, §2
In the preliminary study, all forms were completed at the study site in the presence of the investigator. In Cohort 1 of the present study, the VABS-II, SRS-2, ABC-C and RBS-R were filled out at home by the patient/patient's families prior to treatment visits and returned at treatment visits in order to expedite the execution of the study.

## CC(N)(Cc1ccc(O)cc1)C(=O)O (racemic) [L1-79, α-methyl-DL-tyrosine]
[1]; 100 mg and 200 mg groups vs placebo, Week 4
  responder analysis for CGI-S: clear dose response trend of improvement
[1]; 200 mg group, Week 4 or LOCF
  mean improvement on overall CGI-S versus placebo and 100 mg groups: 0.5 point
[1]; DB 100 mg TID
  CGI-I Mean Change from Baseline: −0.6
  CGI-I Treatment effect versus placebo: −0.4
  CGI-I change from Baseline, median: −1, −1, 0
  CGI-S Mean Change from Baseline: −0.3
  CGI-S Treatment effect versus placebo: −0.0
  CGI-S change from Baseline, median: −1, −0, 0
[1]; DB 200 mg TID
  CGI-I Mean Change from Baseline: −0.5
  CGI-I Treatment effect versus placebo: −0.3
  CGI-I change from Baseline, median: −1, 0, 0
  CGI-S Mean Change from Baseline: −0.8
  CGI-S Treatment effect versus placebo: −0.5
  CGI-S change from Baseline, median: −2, −1, 0
[1]; less than one month of treatment, blinded assessment
  change in the CGI-S compared to baseline: nearly one-point change
Patients with autism; open-label
  effect of longer treatment on core symptoms: greater magnitude of therapeutic benefits
Patients with autism; open-label, 10 patients
  ABC-C domains: consistent improvements
Patients with autism; open-label, 10 patients, from 90 mg TID, minimum 3 months
  average reduction in the ADOS-2: 30%
Patients with autism; open-label, one child
  ADOS-2 decrease in one child (loss of autism diagnosis): 60%
Patients with autism; study drug discontinued
  benefits after discontinuation: not all of the benefits regressed
[2]; 200 mg group
  ABC-C Lethargy and Social Withdrawal / Inappropriate Speech: responder analyses vs placebo: greater tendency for patients to respond with improvement or no worsening
[2]; DB 100 mg TID
  ABC-C Hyperactivity and Noncompliance Mean Change from Baseline: 0.4
  ABC-C Hyperactivity and Noncompliance Treatment effect versus placebo: 4.9
  ABC-C Hyperactivity and Noncompliance change, median: 0, 0, 3
  ABC-C Inappropriate Speech Mean Change from Baseline: 0.0
  ABC-C Inappropriate Speech Treatment effect versus placebo: 1.6
  ABC-C Inappropriate Speech change, median: −2, 0, 1
  ABC-C Irritability and Agitation Mean Change from Baseline: −0.9
  ABC-C Irritability and Agitation Treatment effect versus placebo: 2.5
  ABC-C Irritability and Agitation change, median: −2, −1, 0
  ABC-C Lethargy and Social Withdrawal Mean Change from Baseline: −1.6
  ABC-C Lethargy and Social Withdrawal Treatment effect versus placebo: 3.9
  ABC-C Lethargy and Social Withdrawal change, median: −2, −1, 1
  ABC-C Stereotypic Behavior Mean Change from Baseline: 1.9
  ABC-C Stereotypic Behavior Treatment effect versus placebo: 2.5
  ABC-C Stereotypic Behavior change, median: 0, 0, 4
[2]; DB 200 mg TID
  ABC-C Hyperactivity and Noncompliance Mean Change from Baseline: −4.0
  ABC-C Hyperactivity and Noncompliance Treatment effect versus placebo: 0.5
  ABC-C Hyperactivity and Noncompliance change, median: −7, −1, 0
  ABC-C Inappropriate Speech Mean Change from Baseline: −2.0
  ABC-C Inappropriate Speech Treatment effect versus placebo: −0.4
  ABC-C Inappropriate Speech change, median: −4, −1, 0
  ABC-C Irritability and Agitation Mean Change from Baseline: −2.2
  ABC-C Irritability and Agitation Treatment effect versus placebo: 1.2
  ABC-C Irritability and Agitation change, median: −7, −2, 0
  ABC-C Lethargy and Social Withdrawal Mean Change from Baseline: −4.5
  ABC-C Lethargy and Social Withdrawal Treatment effect versus placebo: 1.0
  ABC-C Lethargy and Social Withdrawal change, median: −9, −2, 0
  ABC-C Stereotypic Behavior Mean Change from Baseline: −1.7
  ABC-C Stereotypic Behavior Treatment effect versus placebo: −1.1
  ABC-C Stereotypic Behavior change, median: −3, −1, 0
[2]; L1-79 200 mg
  patients with stability or improvement of ABC-C social and speech domains: 90 to 100%
[3]; DB 100 mg TID
  ADOS-2 Restricted and Repetitive Behavior Mean Change from Screening: 0.3
  ADOS-2 Restricted and Repetitive Behavior Treatment effect versus placebo: 0.5
  ADOS-2 Restricted and Repetitive Behavior change, median: −1, 0, 1
  ADOS-2 Social Affect Mean Change from Screening: −0.9
  ADOS-2 Social Affect Treatment effect versus placebo: −1.0
  ADOS-2 Social Affect change, median: −2, 0, 1
  ADOS-2 Total Score Mean Change from Screening: −0.6
  ADOS-2 Total Score Treatment effect versus placebo: −0.6
  ADOS-2 Total Score change from Screening, median: −1, 0, 0
[3]; DB 200 mg TID
  ADOS-2 Restricted and Repetitive Behavior Mean Change from Screening: −1.0
  ADOS-2 Restricted and Repetitive Behavior Treatment effect versus placebo: −0.9
  ADOS-2 Restricted and Repetitive Behavior change, median: −2, −1, 0
  ADOS-2 Social Affect Mean Change from Screening: 0.0
  ADOS-2 Social Affect Treatment effect versus placebo: −0.1
  ADOS-2 Social Affect change, median: −1, 1, 1
  ADOS-2 Total Score Mean Change from Screening: −1.0
  ADOS-2 Total Score Treatment effect versus placebo: −1.0
  ADOS-2 Total Score change from Screening, median: −1, −1, 0
[3]; less than one month of treatment
  improvement from baseline in ADOS-2 scores: nearly one point
